“Also recorded” adds a separate entry of the source. Ends that are not written are not given here.
Assays:
Nur-RE [1] = experiment: NurRE-luc reporter (three copies of Nur-RE upstream of minimal POMC promoter) in AtT-20 cells; format: cell-based; conditions: CRH 10^−7M
Procedure: (§1) Transfections in AtT-20 cells were performed by lipofection (lipofectin, Gibco) using exponentially growing AtT-20 cells (7.5×10^5) in 35 mm Petri dishes. Cells were grown in DMEM with 10% fetal calf serum stripped with dextran-coated charcoal. Cells and media were harvested 16 h after lipofection. Each sample for lipofection contained a total of 1.5 μg DNA, including 300 ng reporter plasmid, 300 ng RSV-GH as internal control, 100 ng of pCMX-Nur77 expression vector, and total DNA was completed to 1.5 μg with pSP64. The POMC promoter constructs were described previously (Therrien et al., 1991, Mol. Cell. Biol. 11:3492-3503; Therrien et al., 1993, Cell. Biol. 13:2342-2353.). In particular, the NurRE and nGRE linker scanning replacement mutations were described previously as mutants 3 and 15 in a series of promoter mutations (Therrien et al., 1991, supra). DO 11.10 cells were electroporated using a Biorad instruments at 250 V, 960 μFarad, and 10 μg each of reporter plasmid and expression vectors. CRH (10^−7M) and forskolin (10^−7M) were used at maximally active concentrations, and anti-CD3 (clone 145-2C11) was used at 1 μg/ml to coat dishes. The expression plasmid for the Nur77 dominant negative mutant was used at 3 μg/dish. Data are presented as the means ± SEM of 3 to 5 experiments each performed in duplicate. […]

Nur77 mRNA = experiment: Northern blot of Nur77 mRNA in AtT-20 cells; format: cell-based
Procedure: Total RNA (20 μg) extracted from AtT-20 cells was used in Northern blot experiments performed as described previously (Lamonerie et al., 1996, Genes Dev. 10:1284-1295).

NBRE = experiment: NBRE-luc reporter, antagonism between Nur77 and Dex; format: cell-based; conditions: data not shown
Procedure: Transfections in AtT-20 cells were performed by lipofection (Lipofectamine, Gibco) using exponentially growing AtT-20 cells (7.5×10^5) in 35 mm Petri dishes. Cells were grown in DMEM with 10% fetal calf serum stripped with dextrancoated charcoal (Drouin et al., 1976, Endocrinology 98:1528-1534). Cells and media were harvested 16 h after lipofection. Each sample for lipofection contained a total of 1.5 μg DNA, including 300 ng reporter plasmid, 300 ng RSV-GH as internal control, 100 ng of pCMX-Nur77 expression vector, and total DNA was completed to 1.5 μg with pSP64. Where indicated, CRH and Dex were added at 10^−7M. The POMC promoter constructs were described previously (Therrien et al., 1991, Mol. Cell. Biol. 11:3492-3503; Therrien et al., 1993, Mol. Cell. Biol. 13:2342-2353). In particular, the NurRE and nGRE linker scanning replacement mutations were described previously as mutants 3 and 15 in a series of promoter mutations (Therrien et al., 1991, supra). DO 11.10 cells ([…] in 0.35 ml SMEM) were electroporated using a Biorad instruments at 250 V, 960 μFarad, and 10 μq each of reporter plasmid and expression vectors. After electroporation, cells were plated in SMEM containing 5% fetal calf serum with or without 10^−7M Dex, antiCD3 (clone 145-2C11) was used at 1 μg/ml to coat dishes (Iwata et al., 1991, Eur. J. Pharmacol. 21:643-648). […]

Nur-RE [2] = experiment: NurRE-luc reporter cotransfection with Nur77 and GR in CV-1 cells; format: cell-based; conditions: Dex 10^−7M, ratio 1/0
[3] = tested on: rat POMC promoter (−480 to +63 bp); experiment: POMC promoter-luciferase reporter lipofected in AtT-20 cells; format: cell-based; conditions: Dex 10^−7M
Procedure: as §1

Nur77 (NGFI-B) [4] = biological target: T1, Nur77 (NGFI-B) (UniProt P12813 P12813:1-601); experiment: EMSA; binds as monomer; conditions: tags: Promega TNT SP6/T7, pCMX-Nur77; label: 3'-end label (Klenow)
T1 sequence (P12813 whole entry, one chain of several): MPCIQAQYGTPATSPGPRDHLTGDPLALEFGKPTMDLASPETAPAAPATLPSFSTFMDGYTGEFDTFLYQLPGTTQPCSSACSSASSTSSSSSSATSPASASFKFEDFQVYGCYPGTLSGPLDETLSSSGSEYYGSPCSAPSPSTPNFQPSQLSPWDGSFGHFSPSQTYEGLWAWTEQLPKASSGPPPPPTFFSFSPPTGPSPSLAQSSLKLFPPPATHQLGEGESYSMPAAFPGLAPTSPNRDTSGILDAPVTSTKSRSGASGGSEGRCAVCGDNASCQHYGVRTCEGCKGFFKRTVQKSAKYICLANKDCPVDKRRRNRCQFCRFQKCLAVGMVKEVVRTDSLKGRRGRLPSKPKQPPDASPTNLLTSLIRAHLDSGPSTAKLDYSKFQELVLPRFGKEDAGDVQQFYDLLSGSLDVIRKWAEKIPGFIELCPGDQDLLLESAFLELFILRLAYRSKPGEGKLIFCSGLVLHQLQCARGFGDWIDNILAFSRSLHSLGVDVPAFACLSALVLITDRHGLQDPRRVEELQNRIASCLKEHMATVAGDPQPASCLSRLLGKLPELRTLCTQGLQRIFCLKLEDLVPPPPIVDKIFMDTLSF
Excerpt: For gel retardation experiments, Nur-RE or NBRE oligonucleotides were 3'-end-labeled using Klenow polymerase and purified on polyacrilamide gels.
(§2) The interaction of Nur77 with Nur-RE was investigated directly in binding studies using in vitro translated Nur77.

[5] = biological target: Glucocorticoid receptor (GR) (UniProt P06536 P06536:1-795); experiment: EMSA; conditions: tags: Promega TNT; label: 3'-end label (Klenow)
Glucocorticoid receptor (GR), sequence (P06536 whole entry, one chain of several): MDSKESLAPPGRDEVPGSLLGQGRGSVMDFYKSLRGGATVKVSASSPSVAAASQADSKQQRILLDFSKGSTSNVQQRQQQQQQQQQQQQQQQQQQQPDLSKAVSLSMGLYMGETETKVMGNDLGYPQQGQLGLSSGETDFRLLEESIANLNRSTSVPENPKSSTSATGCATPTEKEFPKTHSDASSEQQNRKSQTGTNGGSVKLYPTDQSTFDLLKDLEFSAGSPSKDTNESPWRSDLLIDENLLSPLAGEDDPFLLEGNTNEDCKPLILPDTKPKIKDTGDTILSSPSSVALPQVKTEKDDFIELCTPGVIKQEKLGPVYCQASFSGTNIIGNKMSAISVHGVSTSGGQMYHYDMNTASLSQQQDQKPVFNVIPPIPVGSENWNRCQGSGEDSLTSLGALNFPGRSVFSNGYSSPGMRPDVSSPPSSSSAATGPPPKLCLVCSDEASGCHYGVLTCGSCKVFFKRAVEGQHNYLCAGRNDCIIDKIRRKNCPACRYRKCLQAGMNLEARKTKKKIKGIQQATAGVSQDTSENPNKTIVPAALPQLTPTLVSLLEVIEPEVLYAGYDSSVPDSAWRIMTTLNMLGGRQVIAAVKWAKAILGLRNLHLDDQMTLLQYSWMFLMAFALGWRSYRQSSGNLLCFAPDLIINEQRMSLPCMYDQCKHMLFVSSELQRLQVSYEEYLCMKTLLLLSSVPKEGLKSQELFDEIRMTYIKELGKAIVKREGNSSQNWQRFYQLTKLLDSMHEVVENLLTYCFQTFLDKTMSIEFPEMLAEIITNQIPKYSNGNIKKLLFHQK

Nur77 (NGFI-B) [6] = biological target: T1, Nur77 (NGFI-B); experiment: EMSA; binds as homodimer, apparently cooperative; DMS interference maps two inverted octamers 6 bp apart; conditions: tags: Promega TNT SP6/T7, pCMX-Nur77; label: 3'-end label (Klenow)
Excerpt: End-labeled coding (C) and non-coding (NC) strands of the Nur-RE were used for DMS interference of Nur77 binding. […] E) Binding of Nur77 to the wild-type and mutant Nur-RE. […] Methods. For gel retardation experiments, Nur-RE or NBRE oligonucleotides were 3'-end-labeled using Klenow polymerase and purified on polyacrilamide gels.
as §2

## Corticotropin Releasing Hormone (SEEPPISLDLTFHLLREVLEMARAEQLAQQAHSNRKLMEII; ends and bridges not checked; UniProt P06850 154-194, looked up) [CRH, hypothalamic hormone, major stimulus of pituitary ACTH secretion and of POMC transcription]
Nur-RE [1]
  response of Nur-RE reporter (oligomerized response element, construct 6) to CRH: greatly enhanced response
Nur77 mRNA; CRH 10^−7M
  induction of Nur77 mRNA/expression: rapidly Induced; also recorded: transient induction

## C[C@@H]1C[C@H]2[C@@H]3CCC4=CC(=O)C=C[C@]4(C)[C@@]3(F)[C@@H](O)C[C@]2(C)[C@@]1(O)C(=O)CO [Dex, dexamethasone]
Nur77 mRNA; Dex 10^−7M with CRH 10^−7M
  reduction of the CRH induction of Nur77 mRNA: about 50%
NBRE
  magnitude of Nur77/Dex antagonism on NBRE-luc reporter relative to NurRE-luc: about 40 fold less
Nur-RE [2]
  effect on Nur77 activation at the NurRE in the absence of GR: no effect
[3]
  magnitude of the repression of POMC promoter/luciferase reporter: 2- to 3 fold

B1: NBRE (dsDNA)
DNA 1: GATCCTCGTGCGAAAAGGTCAAGCGCTA
DNA 2: TAGCGCTTGACCTTTTCGCACGAGGATC
Nur77 (NGFI-B) [4]
  binding result: binds

B2: NurRE (POMC) (dsDNA)
DNA 1: GATCCTAGTGATATTTACCTCCAAATGCCAGGA
DNA 2: TCCTGGCATTTGGAGGTAAATATCACTAGGATC
[5]
  binding result: no binding
Nur77 (NGFI-B) [6]
  binding result: binds

— US6852538B1, “Nur-RE a response element which binds nur nuclear receptors and method of use therefor” (Institut de Recherches Cliniques de Montreal, priority 1996, dated 2005)
